Reference: patent publication US5332742A, “Renin inhibitors” (Abbott Laboratories, priority 1993, dated 1994)

Experiments:
[1] = Mean arterial blood pressure in salt-depleted dogs after i.v. or p.o. dosing; assay type: in vivo, dog; conditions: salt-depleted male beagle dogs; 10 mg/kg i.v. (in D5W) or 10 mg/kg p.o. (in methylcellulose); FIG. 1A
Procedure: (§1) Male beagle dogs (8-12 kg, Marshall/Hazelton) were converted to a salt-depleted status by dosing on the three consecutive days prior to the experiment with furosemide (Phoenix Pharmaceuticals, 10 mg/kg i.m.) and by placing them on a low sodium diet (approximately 2-5 meq/day; H/D; Hills Pet Products). Prior to the study, each dog was instrumented with an indwelling catheter ana conditioned to stand calmly in a restraining sling for periods of up to 8 hours. On the morning of the experiment, the arteriai catheter was connected to a Sorenson Transpac II® pressure transducer (Abbott Laboratories). For dogs receiving intravenous (i.v.) doses, a catheter (Abbott; 16 ga Venocath) was introduced in a rear leg saphenous vein by venipuncture. For dogs receiving receiving oral (p.o.) doses by garage, an 18 Fr. suction catheter (Mallinckrodt Critical Care) was used. Data samples of systemic hemodynamic variables were acquired by the MI2 computer at 5 minute intervals beginning 90 minutes prior to administration of the test compound and ending 6 hours after dosing. Arterial blood smaples (3.0 ml) to determine plasma drug concentrations and plasma renin activity (PRA) were taken for i.v. doses at -60, -30, 3, 10, 30, 60, 120, 240 and 360 minutes an for p.o. doses at --60, -30, 15, 30, 60, 90, 120, 180 and 360 minutes relative to the time of test compound administration. […]

renin = target: T1, renin (Canis lupus familiaris, UniProt Q6DYE7); assay: Plasma renin activity (PRA) in salt-depleted dogs after i.v. or p.o. dosing; assay type: in vivo, dog; conditions: salt-depleted male beagle dogs; 10 mg/kg i.v. (in D5W) or 10 mg/kg p.o. (in methylcellulose); FIG. 1B
T1 construct: from tissue; host or cells: circulating plasma renin of salt-depleted beagle dogs (in vivo)
T1 sequence (Q6DYE7 66-403): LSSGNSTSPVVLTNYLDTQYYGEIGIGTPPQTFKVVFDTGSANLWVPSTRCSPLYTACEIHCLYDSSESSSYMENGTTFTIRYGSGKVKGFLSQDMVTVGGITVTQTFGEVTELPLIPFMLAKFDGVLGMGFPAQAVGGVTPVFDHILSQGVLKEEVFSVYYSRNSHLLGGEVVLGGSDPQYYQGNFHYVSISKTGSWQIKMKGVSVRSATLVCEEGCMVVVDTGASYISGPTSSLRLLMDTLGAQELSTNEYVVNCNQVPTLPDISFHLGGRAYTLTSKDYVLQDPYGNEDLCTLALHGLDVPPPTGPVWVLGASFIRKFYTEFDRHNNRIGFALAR
Procedure: as §1

human renal renin = target: T2, human renal renin (Homo sapiens, UniProt P00797); assay: In vitro inhibition of human renal renin (angiotensin I formation measured by radioimmunoassay); assay type: biochemical; conditions: human renal renin with human angiotensinogen, 37 degrees C., pH 6.5
T2 construct: human renal renin, free from acid proteolytic activity; from tissue; host or cells: human kidney ('renal')
T2 sequence (P00797 67-406): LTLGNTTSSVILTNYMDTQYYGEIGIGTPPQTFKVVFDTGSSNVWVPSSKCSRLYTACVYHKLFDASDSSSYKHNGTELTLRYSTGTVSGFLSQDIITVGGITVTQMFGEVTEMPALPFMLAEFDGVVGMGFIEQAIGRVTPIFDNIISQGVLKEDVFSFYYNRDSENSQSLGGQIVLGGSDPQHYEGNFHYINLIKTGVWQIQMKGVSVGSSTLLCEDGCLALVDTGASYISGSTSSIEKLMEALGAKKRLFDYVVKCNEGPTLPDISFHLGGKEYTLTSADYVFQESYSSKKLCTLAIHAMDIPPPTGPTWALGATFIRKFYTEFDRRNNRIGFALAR
Procedure: At the end of the incubation, the amount of angiotensin I formed is measured by radioimmunoassay and the molar concentration required to cause 50% inhibition, expressed as the IC50 is calculated .

| Compound | mean arterial pressure (MAP) [1] | plasma renin activity (PRA) (renin) | IC50 (human renal renin) [nM] |
| --- | --- | --- | --- |
| CC(C)C[C@H](O)[C@H](O)[C@H](CC1CCCCC1)NC(=O)[C@H](Cc1cscn1)NC(=O)[C@H](Cc1ccccc1)CS(=O)(=O)N1CCN(C)CC1.CS(=O)(=O)O [Example 17B, (2S)-2-Benzyl-3-(1-methyl-piperazin-4-ylsulfonyl) propionyl-(L)-(4-Thiazolyl)Ala Amide of (2S,3R,4S)-2-Amino-1-cyclohexyl-3,4-dihydroxy-6-methylheptane methanesulfonate salt] | effective for reducing blood pressure | inhibits renin in vivo | – |
| CC(C)C[C@H](O)[C@H](O)[C@H](CC1CCCCC1)NC(=O)[C@H](Cc1cscn1)NC(=O)[C@H](Cc1ccccc1)CS(=O)(=O)N1CCNC(=O)C1 [Example 11F] | – | – | 0.28 |
| CC(C)C[C@H](O)[C@H](O)[C@H](CC1CCCCC1)NC(=O)[C@H](Cc1cscn1)NC(=O)[C@H](Cc1ccccc1)CS(=O)(=O)N1CC[N+](C)([O-])CC1 [Example 10B, (2S)-2-Benzyl-3-(1-methyl-1-oxo-piperazin-4-ylsulfonyl)propionyl-(L)-(4Thiazolyl)Ala Amide of (2S,3R,4S)-2-Amino-1-cyclohexyl-3,4-dihydroxy-6-methylheptane] | – | – | 0.3 |
| CC(C)C[C@H](O)[C@H](O)[C@H](CC1CCCCC1)NC(=O)[C@H](Cc1cscn1)NC(=O)[C@H](Cc1ccccc1)CS(=O)(=O)N1CCNCC1 [Example 6D, (2S)-2-Benzyl-3-(piperazin-4-ylsulfonyl)propionyl-(L)-(4-Thiazolyl)Ala Amide of (2 S, 3R, 4S)-2-Amin0-1-cyclohexyl-3,4-dihydroxy-6-methylheptane] | – | – | 0.33 |
| CC(C)C[C@H](O)[C@H](O)[C@H](CC1CCCCC1)NC(=O)[C@H](Cc1cscn1)NC(=O)C(Cc1ccccc1)NS(=O)(=O)N1CCN(C)CC1 (stereo partly shown) [Example 13C] | – | – | 0.22 |
| CC(C)C[C@H](O)[C@H](O)[C@H](CC1CCCCC1)NC(=O)[C@H](Cc1cscn1)N(C)C(=O)C(CCc1ccccc1)NS(=O)(=O)N1CCN(C)CC1 (stereo partly drawn) [Example 12F, (4-Methylpiperazin-1-yl) sulfonyl-(Phenylmethyl)alanine-N-Methyl-3-(4-thiazolyl)-L-alanine Amide of (2S,3R,4S)-2-Amino-1-cyclohexyl-3,4-dihydroxy-6-methylheptane] | – | – | 0.45 |
